These results are taken from patent US20190059378A1, “SYNERGISTIC FUNGICIDAL COMPOSITION FOR CONTROLLING PLANT DISEASES” (Sumitomo Chemical Company, Limited, priority 2016, published 2019).

The test system of assay [1] is Brown rust (Puccinia recondita). As to the kind of experiment: Test Example 4: foliar spray on wheat, Brown rust lesion area. Format: in vivo, Puccinia recondita on wheat (cultivar. Shirogane). The note with it: single use, foliar spray one day before inoculation. The method, then:
Five(5) parts of the present compound 1-1, 35 parts of a mixture of white carbon and ammonium polyoxyethylene alkyl ether sulfate (the weight ratio of 1:1) and 55 parts of water were mixed, and the mixture was then finely-ground by a wet grinding method to obtain a flowable comprising the present compound 1-1. Separately, the flowable comprising the present compound 2 was prepared according to the above-mentioned similar method except that the present compound 2 was used instead of the present compound 1-1.
Each of the flowable comprising the present compound 1-1 and the flowable comprising the present compound 2 was diluted with water and if necessary, the resultant dilute solutions were mixed each other such that each concentration of the respective compounds in the dilution solution was adjusted to the concentration indicated in Table 4, to prepare the dilution solutions, respectively.
A plastic pot was filled with soil, and thereto wheat (cultivar. Shirogane) was seeded, and the plants were grown in a greenhouse for ten days. The above-mentioned dilution solutions were sprayed to foliar parts so as to adhere adequately onto the surfaces of leaves of the above wheats. After spraying the dilute solution, the plants were air-dried, and one day after the application, an aqueous suspension of uredospores of Brown rust (Puccinia recondita) was inoculated by spraying thereto. After the inoculation, the plants were placed at 27° C. under humid condition for one day, and were then cultivated under lighting for ten days, and a lesion area was examined (hereinafter referred to as “lesion area of treated group”).
Whereas, wheats were cultivated similarly to the treated group except that no foliage application of the above-mentioned agent solution was done, and Brown rust were inoculated, and the lesion area thereof was examined (hereinafter referred to as “lesion area of the untreated group”).
From each of the lesion area of the treated group and the untreated group, respectively, the efficacy of the treated group was calculated by the following Equation 2. […]

Assay [2] deals with Septoria leaf blotch (Mycosphaerella graminicola). As to the kind of experiment: Test Example 3: growth of Septoria leaf blotch in YBG medium in microtiter plate (absorbance at 550 nm). In kind it is cell-based. The note with it: single use, 18° C., four days. The method, then: Each of the present compound 1-1 or the present compound 2 was dissolved into dimethyl sulfoxide such that each concentration of these compounds was adjusted to one hundred fifty times as much as the concentration indicated in the below-mentioned Table 3. The resultant agent solution was dispensed into each microtiter plate (with 96 wells) in 1 μl portion thereof per well. […] The plate was cultivated at 18° C. for four days, thereby allowing Septoria leaf blotch (Mycosphaerella graminicola) to undergo proliferation, and the absorbance at 550 nm of each well of the microtiter plate was then measured to examine a degree of growth of Septoria leaf blotch (hereinafter referred to as “treated group”).
Whereas, Septoria leaf blotch was proliferated similarly to the case of the treated group except that dimethyl sulfoxide was used instead of the agent solution, and the degree of the growth was examined (hereinafter referred to as “untreated group”). The efficacy was calculated from each of the obtained degree of growth of the treated group and the untreated group respectively by the following “Equation 1”. […]

As for `Cc1nnc(Cl)c(-c2c(F)cccc2F)c1-c1ccccc1` [Present compound 1-1], the figures for the “Efficacy (%)” value in assay [1] (concentration in agent solution 0.0001 ppm), in assay [1] (concentration in agent solution 0.01 ppm) and in assay [2] (concentration in medium 0.005 ppm) were 20%, 31% and 4%, respectively.
In the case of `CC1CC(C)(C)c2c(F)ccc(NC(=O)c3cn(C)nc3C(F)F)c21` (centres unmarked) [Present compound 2], the “Efficacy (%)” value in assay [1] (concentration in agent solution 0.001 ppm) was 15%; in assay [2] (concentration in medium 0.05 ppm), 55%.
